Data from patent US8143243B2, “Compounds for the treatment of hepatitis C” (Bristol-Myers Squibb Company, priority 2007, dated 2012).
Where two headings read alike, the source gives them in different places.

Assays:
HCV NS5B = biological target: T1, HCV NS5B (Hepatitis C virus genotype 1b, UniProt Q9WMX2); test: HCV NS5B RdRp enzyme assay (standard / modified); assay type: biochemical
T1 construct: The protein was expressed with an 18 amino acid C-terminal truncation to enhance the solubility; made in house; host or cells: E. coli BL21 (DE3)
Method in brief: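 NS5B genotype 1b, 18-aa C-terminal truncation, E. coli-expressed; polyA template with biotinylated oligo-dT12 primer, 3H-UTP 0.29 μM, 30° C, SPA read-out in 20 mM Hepes pH 7.5, 2% DMSO. Standard: 28 nM enzyme, 6 nM template, 180 nM primer, 60 min; modified: 14 nM enzyme, 0.2 nM template, 20 nM bead-precaptured primer, 4 h. IC50 from seven concentrations.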

HCV replicon cells = test: HCV replicon FRET / luciferase assay; assay type: cell-based
Method in brief: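 Trypsinized replicon cells were seeded with compound titrations and incubated at 37 °C for various times. Alamar blue was added to gauge toxicity. Plates were then rinsed and either lysed with FRET peptide reagent for kinetic fluorescence reading or switched to phenol red-free DMEM for luciferase measurement.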

[1] = HCV RdRp genotype 1b enzyme, read-out: IC50
[2] = Hepatitis C virus, HCV replicon cells, FRET or luciferase readout, read-out: EC50

T1 sequence (Q9WMX2 2420-2992): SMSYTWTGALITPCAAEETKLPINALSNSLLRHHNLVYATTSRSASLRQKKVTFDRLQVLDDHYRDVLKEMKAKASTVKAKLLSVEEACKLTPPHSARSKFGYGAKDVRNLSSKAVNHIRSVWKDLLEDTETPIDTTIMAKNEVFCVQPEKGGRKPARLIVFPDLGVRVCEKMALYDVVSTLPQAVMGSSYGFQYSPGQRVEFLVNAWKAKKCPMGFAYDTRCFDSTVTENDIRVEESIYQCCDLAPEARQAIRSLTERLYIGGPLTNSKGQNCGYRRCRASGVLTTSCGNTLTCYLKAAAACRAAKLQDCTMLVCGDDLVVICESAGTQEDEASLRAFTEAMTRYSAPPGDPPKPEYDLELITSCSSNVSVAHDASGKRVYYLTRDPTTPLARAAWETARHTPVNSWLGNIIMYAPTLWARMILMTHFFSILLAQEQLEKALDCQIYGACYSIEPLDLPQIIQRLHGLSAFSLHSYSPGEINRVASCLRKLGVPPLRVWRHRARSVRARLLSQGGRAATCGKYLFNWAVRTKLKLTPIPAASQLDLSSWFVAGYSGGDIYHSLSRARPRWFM

SMILES	IC50 (HCV NS5B; [1]) [nM]	EC50 (HCV replicon cells; [2]) [nM]	IC50 (HCV NS5B) [nM]	EC50 (HCV replicon cells; Hepatitis C virus) [nM]	EC50 (HCV replicon cells; HCV replicon cells, FRET or luciferase readout, read-out: EC50) [nM]
COCCN(C(=O)c1cnn(C)c1C1=Cc2cc(OC)ccc2-c2c(C3CCCCC3)c3ccc(C(=O)NS(=O)(=O)C(C)C)cc3n2C1)C(C)C	1 to 500	1 to 500	–	–	–
COc1ccc2c(c1)C=C(c1c(C(=O)N3C4COCC3COC4)cnn1C)Cn1c-2c(C2CCCCC2)c2ccc(C(=O)NS(=O)(=O)CC(C)C)cc21	–	–	1 to 500	1 to 500	–
COc1ccc2c(c1)C=C(c1c(C(=O)N3C[C@@H](C)N(C)[C@@H](C)C3)cnn1C(C)C)Cn1c-2c(C2CCCCC2)c2ccc(C(=O)NS(=O)(=O)CC(C)C)cc21	1 to 500	1 to 500	–	–	–
COc1ccc2c(c1)C=C(c1ocnc1C(=O)N1CCOCC1)Cn1c-2c(C2CCCCC2)c2ccc(C(=O)NS(=O)(=O)C3CC3)cc21	1 to 500	1 to 500	–	–	–
COc1ccc2c(c1)C=C(c1c(C(=O)N3C[C@@H](C)O[C@@H](C)C3)c(C)nn1C)Cn1c-2c(C2CCCCC2)c2ccc(C(=O)NS(=O)(=O)C(C)C)cc21	1 to 500	1 to 500	–	–	–
COc1ccc2c(c1)C=C(c1c(C(=O)N3CCOCC3)cnn1C(C)C)Cn1c-2c(C2CCCCC2)c2ccc(C(=O)NS(=O)(=O)CC(C)C)cc21	1 to 500	1 to 500	–	–	–
COc1ccc2c(c1)C=C(c1ocnc1C(=O)N1CCOCC1)Cn1c-2c(C2CCCCC2)c2ccc(C(=O)O)cc21	1 to 500	1 to 500	–	–	–
CCn1ncc(C(=O)N2CCN(C)CC2)c1C1=Cc2cc(OC)ccc2-c2c(C3CCCCC3)c3ccc(C(=O)NS(=O)(=O)N4CCCC4)cc3n2C1	1 to 500	1 to 500	–	–	–
COc1ccc2c(c1)C=C(c1c(C(=O)N3C[C@@H](C)N(C)[C@@H](C)C3)cnn1C(C)(C)C)Cn1c-2c(C2CCCCC2)c2ccc(C(=O)NS(=O)(=O)C(C)C)cc21	1 to 500	1 to 500	–	–	–
COc1ccc2c(c1)C=C(c1c(C(=O)N3[C@@H]4CC[C@H]3C[C@@](C)(O)C4)cnn1C)Cn1c-2c(C2CCCCC2)c2ccc(C(=O)NS(=O)(=O)C(C)C)cc21	–	–	1 to 500	1 to 500	–
COc1ccc2c(c1)C=C(c1c(C(=O)N3C[C@@H](C)O[C@@H](C)C3)c(C(F)(F)F)nn1C)Cn1c-2c(C2CCCCC2)c2ccc(C(=O)NS(=O)(=O)C(C)C)cc21	< 20	1 to 500	–	–	–
CCN(CC)C(=O)c1sccc1C1=Cc2cc(OC)ccc2-c2c(C3CCCCC3)c3ccc(C(=O)NS(=O)(=O)N(C)C)cc3n2C1	1 to 500	1 to 500	–	–	–
COc1ccc2c(c1)C=C(c1c(C(=O)N3CCC(N(C)C)C3)cnn1C)Cn1c-2c(C2CCCCC2)c2ccc(C(=O)NS(=O)(=O)C(C)C)cc21 (stereo not drawn)	1 to 500	1 to 500	–	–	–
COc1ccc2c(c1)C=C(c1c(C(=O)N3C[C@@H](C)O[C@@H](C)C3)cnn1C(C)(C)C)Cn1c-2c(C2CCCCC2)c2ccc(C(=O)NS(=O)(=O)C(C)C)cc21	1 to 500	1 to 500	–	–	–
COc1ccc2c(c1)C=C(c1c(C(=O)N3C[C@@H](C)O[C@@H](C)C3)cnn1C(C)C)Cn1c-2c(C2CCCCC2)c2ccc(C(=O)NS(=O)(=O)CC(C)C)cc21	1 to 500	1 to 500	–	–	–
CCC(C)S(=O)(=O)NC(=O)c1ccc2c(C3CCCCC3)c3n(c2c1)CC(c1c(C(=O)N2C4CCCC2COC4)cnn1C)=Cc1cc(OC)ccc1-3 (stereo not drawn)	–	–	1 to 500	1 to 500	–
CCn1nc(C)c(C2=Cc3cc(OC)ccc3-c3c(C4CCCCC4)c4ccc(C(=O)NS(=O)(=O)C(C)C)cc4n3C2)c1C(=O)N1C[C@@H](C)O[C@@H](C)C1	1 to 500	1 to 500	–	–	–
COc1ccc2c(c1)C=C(c1c(C(=O)N3C4CCC3CN(C)C4)cnn1C)Cn1c-2c(C2CCCCC2)c2ccc(C(=O)NS(=O)(=O)C3CCCC3)cc21	–	–	1 to 500	1 to 500	–
COc1ccc2c(c1)C=C(c1c(C(=O)N3C4CCC3CN(C)C4)c(C)nn1C)Cn1c-2c(C2CCCCC2)c2ccc(C(=O)NS(=O)(=O)C(C)C)cc21	–	–	1 to 500	1 to 500	–
COc1ccc2c(c1)C=C(c1occc1C(=O)N1C3CCC1CN(C)C3)Cn1c-2c(C2CCCCC2)c2ccc(C(=O)NS(=O)(=O)C(C)C)cc21	–	–	1 to 500	1 to 500	–
COc1ccc2c(c1)C=C(c1c(C(=O)N3CCOCC3)cnn1CC(F)(F)F)Cn1c-2c(C2CCCCC2)c2ccc(C(=O)NS(=O)(=O)C(C)C)cc21	1 to 500	1 to 500	–	–	–

SMILES	IC50 (HCV NS5B; [1]) [nM]	EC50 (HCV replicon cells; [2]) [nM]	IC50 (HCV NS5B) [nM]	EC50 (HCV replicon cells; Hepatitis C virus) [nM]	EC50 (HCV replicon cells; HCV replicon cells, FRET or luciferase readout, read-out: EC50) [nM]
COC[C@@H]1CN(C(=O)c2cnn(C)c2C2=Cc3cc(OC)ccc3-c3c(C4CCCCC4)c4ccc(C(=O)NS(=O)(=O)C5CCCC5)cc4n3C2)CCO1	1 to 500	1 to 500	–	–	–
COC(=O)c1ncoc1C1=Cc2cc(OC)ccc2-c2c(C3CCCCC3)c3ccc(C(=O)OC(C)(C)C)cc3n2C1	> 40	> 40	–	–	–
COc1ccc2c(c1)C=C(c1c(C(=O)N3CCN(C)CC3)cnn1C)Cn1c-2c(C2CCCCC2)c2ccc(C(=O)NS(=O)(=O)N3CCOCC3)cc21	1 to 500	1 to 500	–	–	–
CCC(C)S(=O)(=O)NC(=O)c1ccc2c(C3CCCCC3)c3n(c2c1)CC(c1c(C(=O)N2C4COCC2COC4)cnn1C)=Cc1cc(OC)ccc1-3 (stereo not drawn)	–	–	1 to 500	1 to 500	–
COc1ccc2c(c1)C=C(c1c(C(=O)N3C4CCC3CN(C)C4)cnn1CC(F)(F)F)Cn1c-2c(C2CCCCC2)c2ccc(C(=O)NS(=O)(=O)C(C)C)cc21	–	–	1 to 500	1 to 500	–
CCN1C[C@@H]2C[C@H]1CN2C(=O)c1c(C)nn(CC)c1C1=Cc2cc(OC)ccc2-c2c(C3CCCCC3)c3ccc(C(=O)NS(=O)(=O)C(C)C)cc3n2C1	1 to 500	1 to 500	–	–	–
CCN1C[C@H]2C[C@@H]1CN2C(=O)c1cnn(C(C)C)c1C1=Cc2cc(OC)ccc2-c2c(C3CCCCC3)c3ccc(C(=O)NS(=O)(=O)CC(C)C)cc3n2C1	1 to 500	1 to 500	–	–	–
CCC(C)S(=O)(=O)NC(=O)c1ccc2c(C3CCCCC3)c3n(c2c1)CC(c1c(C(=O)N2C4CCC2CN(C)C4)cnn1C)=Cc1cc(OC)ccc1-3 (stereo not drawn)	–	–	1 to 500	1 to 500	–
COc1ccc2c(c1)C=C(c1c(C(=O)N3C[C@@H](C)O[C@@H](C)C3)cnn1C)Cn1c-2c(C2CCCCC2)c2ccc(C(=O)NS(=O)(=O)C(C)C)cc21	1 to 500	1 to 500	–	–	–
COC[C@@H]1CN(C(=O)c2cnn(C(C)C)c2C2=Cc3cc(OC)ccc3-c3c(C4CCCCC4)c4ccc(C(=O)NS(=O)(=O)C(C)C)cc4n3C2)CCO1	1 to 500	1 to 500	–	–	–
COc1ccc2c(c1)C=C(c1c(C(=O)N3CCCC(N(C)C)C3)cnn1C)Cn1c-2c(C2CCCCC2)c2ccc(C(=O)NS(=O)(=O)C3CCC3)cc21 (stereo not drawn)	1 to 500	1 to 500	–	–	–
CCN1C[C@@H]2C[C@H]1CN2C(=O)c1cnn(C)c1C1=Cc2cc(OC)ccc2-c2c(C3CCCCC3)c3ccc(C(=O)NS(=O)(=O)C(C)C)cc3n2C1	1 to 500	1 to 500	–	–	–
CCn1nc(C)c(C(=O)OC)c1C1=Cc2cc(OC)ccc2-c2c(C3CCCCC3)c3ccc(C(=O)O)cc3n2C1	> 500	> 500	–	–	–
COC[C@@H]1CN(C(=O)c2cnn(C)c2C2=Cc3cc(OC)ccc3-c3c(C4CCCCC4)c4ccc(C(=O)NS(=O)(=O)CC(C)C)cc4n3C2)CCO1	1 to 500	1 to 500	–	–	–
COc1ccc2c(c1)C=C(c1c(C(=O)N3C4CCC3CN(C)C4)cnn1C)Cn1c-2c(C2CCCCC2)c2ccc(C(=O)O)cc21	–	–	> 500	1 to 500	–
COc1ccc2c(c1)C=C(c1c(C(=O)N3CCN(C)CC3)c(C(F)(F)F)nn1C)Cn1c-2c(C2CCCCC2)c2ccc(C(=O)NS(=O)(=O)C(C)C)cc21	1 to 500	1 to 500	–	–	–
COc1ccc2c(c1)C=C(c1sccc1C(=O)N1C3CCC1CN(C)C3)Cn1c-2c(C2CCCCC2)c2ccc(C(=O)NS(=O)(=O)C(C)C)cc21	–	–	1 to 500	1 to 500	–
CCn1nc(C)c(C(=O)N2C[C@@H](C)O[C@@H](C)C2)c1C1=Cc2cc(OC)ccc2-c2c(C3CCCCC3)c3ccc(C(=O)NS(=O)(=O)C(C)C)cc3n2C1 [drawing 627]	1 to 500	–	–	–	1 to 500
COc1ccc2c(c1)C=C(c1c(C(=O)N3CCOCC3)cnn1C(C)C)Cn1c-2c(C2CCCCC2)c2ccc(C(=O)O)cc21	1 to 500	1 to 500	–	–	–
COc1ccc2c(c1)C=C(c1c(C(=O)N3CC4CCC(C3)N4C)c(C(F)(F)F)nn1C)Cn1c-2c(C2CCCCC2)c2ccc(C(=O)NS(=O)(=O)C(C)C)cc21	–	–	1 to 500	1 to 500	–
COc1ccc2c(c1)C=C(c1c(C(=O)N3CCN4CCCC4C3)cnn1C)Cn1c-2c(C2CCCCC2)c2ccc(C(=O)NS(=O)(=O)C(C)C)cc21 (stereo not drawn)	1 to 500	1 to 500	–	–	–
